Measurements taken from EPA's ToxRefDB 2.

Tests used:
rat [1] = settings: Subchronic oral toxicity in rodents, fischer, Feed, dose end: 13 week, group: systemic, systemic / in life observation / body weight / body weight gain + systemic / in life observation / food consumption / food consumption + …
rat [2] = settings: Prenatal developmental toxicity study, sprague dawley, Oral, Gavage/Intubation, dose end: 15 GD
rat [3] = settings: Subchronic oral toxicity in rodents, fischer, Feed, dose end: 13 week, group: systemic, systemic / clinical chemistry / alanine aminotransferase (alt/sgpt) / alanine aminotransferase (alt/sgpt) + systemic / clinical chemistry / …
rat [4] = settings: Prenatal developmental toxicity study, sprague dawley, Oral, Gavage/Intubation, dose end: 15 GD; remark: listed apart in the source
rat [5] = settings: Prenatal developmental toxicity study, other, Oral, Gavage/Intubation, dose end: 15 GD
dog [6] = settings: Chronic toxicity, beagle, Oral, Feed, dose end: 52 week, group: systemic
mouse [7] = settings: Subchronic oral toxicity in rodents, cd1, Feed, dose end: 3 month, group: systemic
rat [8] = settings: Subchronic oral toxicity in rodents, Feed, dose end: 13 week, group: systemic
rat [9] = settings: Multigenerational reproductive toxicity study, sprague dawley, Oral, Feed, dose end: 2 generation
rat [10] = settings: Combined chronic toxicity/carcinogenicity, sprague dawley, Oral, Feed, dose end: 2 year, group: systemic
dog [11] = settings: Subchronic oral toxicity in nonrodent, beagle, Feed, dose end: 3 month, group: systemic
mouse [12] = settings: Carcinogenicity; cd1; Oral; Feed; dose end: 78 week; group: systemic; systemic / organ weight / liver / nos + systemic / pathology microscopic / liver / hypertrophy + systemic / pathology microscopic / liver / …
[13] = group: developmental, developmental / developmental malformation / bone / absent + developmental / developmental malformation / bone / bent + developmental / …
[14] = group: maternal, systemic / in life observation / body weight / body weight gain
[15] = group: developmental, developmental / developmental malformation / bone / exencephaly + developmental / developmental malformation / bone / thread-like + …
[16] = group: maternal, systemic / in life observation / body weight / body weight gain + systemic / in life observation / food consumption / food consumption
[17] = group: developmental, developmental / developmental malformation / bone / short supernumerary + systemic / in life observation / body weight / fetal weight
[18] = group: maternal, reproductive / reproductive performance / implantations / implantations + reproductive / reproductive performance / resorptions / …
[19] = systemic / in life observation / body weight / body weight gain
[20] = systemic / in life observation / body weight / body weight gain + systemic / clinical chemistry / alkaline phosphatase (alp/alk) / alkaline …
[21] = systemic / pathology microscopic / liver / hypertrophy
[22] = systemic / pathology microscopic / liver / hypertrophy + systemic / clinical chemistry / alanine aminotransferase (alt/sgpt) / alanine …
[23] = systemic / pathology microscopic / liver / vacuolization
[24] = systemic / pathology microscopic / liver / vacuolization + systemic / clinical chemistry / cholesterol / cholesterol + systemic / clinical …
[25] = group: offspring, developmental / offspring survival late / viability index / viability index + systemic / in life observation / body weight / offspring (pup…
[26] = group: parental, systemic / in life observation / body weight / body weight + systemic / in life observation / food consumption / food consumption + systemic…
[27] = group: reproductive, reproductive / reproductive performance / dystocia / dystocia + reproductive / reproductive performance / gestational length / gestational …
[28] = systemic / hematology / hematocrit (hct) / hematocrit (hct) + systemic / hematology / hemoglobin (hgb) / hemoglobin (hgb) + systemic / …
[29] = systemic / pathology microscopic / liver / hypertrophy + systemic / clinical chemistry / alkaline phosphatase (alp/alk) / alkaline …

CC(C)[NH3+].O=C([O-])COc1ccc(Cl)cc1Cl [2,4-D, isopropylamine salt]
LEL (rat [1]): 127 mg/kg/day
LOAEL (rat [1]): 127 mg/kg/day
NEL (rat [1]): 19 mg/kg/day
NOAEL (rat [1]): 19 mg/kg/day
LEL (rat [2]; [13]): 100 mg/kg/day
LOAEL (rat [2]; [13]): 100 mg/kg/day
NEL (rat [2]; [13]): 32.5 mg/kg/day
NOAEL (rat [2]; [13]): 32.5 mg/kg/day
LEL (rat [2]; [14]): 32.5 mg/kg/day
LOAEL (rat [2]; [14]): 32.5 mg/kg/day
NEL (rat [2]; [14]): < 32.5 mg/kg/day
NOAEL (rat [2]; [14]): < 32.5 mg/kg/day
LEL (rat [3]): 187 mg/kg/day
LOAEL (rat [3]): 187 mg/kg/day
NEL (rat [3]): 28 mg/kg/day
NOAEL (rat [3]): 28 mg/kg/day
LEL (rat [4]; [15]): 190 mg/kg/day
LOAEL (rat [4]; [15]): 190 mg/kg/day
NEL (rat [4]; [15]): 65 mg/kg/day
NOAEL (rat [4]; [15]): 65 mg/kg/day
LEL (rat [4]; [16]): 190 mg/kg/day
LOAEL (rat [4]; [16]): 190 mg/kg/day
NEL (rat [4]; [16]): 65 mg/kg/day
NOAEL (rat [4]; [16]): 65 mg/kg/day

N#CC(CCc1ccc(Cl)cc1)(Cn1cncn1)c1ccccc1 (stereo not drawn) [Fenbuconazole]
LEL (rat [5]; [17]): 150 mg/kg/day
LOAEL (rat [5]; [17]): > 150 mg/kg/day
NEL (rat [5]; [17]): 75 mg/kg/day
NOAEL (rat [5]; [17]): ≥ 150 mg/kg/day
LEL (rat [5]; [18]): 75 mg/kg/day
LOAEL (rat [5]; [18]): 75 mg/kg/day
NEL (rat [5]; [18]): 30 mg/kg/day
NOAEL (rat [5]; [18]): 30 mg/kg/day
LEL (dog [6]; [19]): 3.75 mg/kg/day
LOAEL (dog [6]; [19]): 3.75 mg/kg/day
NEL (dog [6]; [20]): 0.38 mg/kg/day
NOAEL (dog [6]; [20]): 0.38 mg/kg/day
LEL (mouse [7]; [21]): 11.1 mg/kg/day
LOAEL (mouse [7]; [21]): 11.1 mg/kg/day
NEL (mouse [7]; [22]): 3.8 mg/kg/day
NOAEL (mouse [7]; [22]): 3.8 mg/kg/day
LEL (rat [8]; [23]): 5.1 mg/kg/day
LOAEL (rat [8]; [23]): 5.1 mg/kg/day
NEL (rat [8]; [24]): 1.3 mg/kg/day
NOAEL (rat [8]; [24]): 1.3 mg/kg/day
LEL (rat [9]; [25]): 40 mg/kg/day
LOAEL (rat [9]; [25]): 40 mg/kg/day
NEL (rat [9]; [25]): 4 mg/kg/day
NOAEL (rat [9]; [25]): 4 mg/kg/day
LOAEL (rat [9]; [26]): 40 mg/kg/day
NEL (rat [9]; [26]): 0.4 mg/kg/day
NOAEL (rat [9]; [26]): 4 mg/kg/day
LEL (rat [9]; group: parental, systemic / organ weight / liver / absolute + systemic / organ weight / liver / relative to body weight): 4 mg/kg/day
LEL (rat [9]; [27]): 40 mg/kg/day
LOAEL (rat [9]; [27]): 40 mg/kg/day
NEL (rat [9]; [27]): 4 mg/kg/day
NOAEL (rat [9]; [27]): 4 mg/kg/day
LEL (rat [10]; systemic / hematology / hematocrit (hct) / hematocrit (hct) + systemic / hematology / hemoglobin (hgb) / hemoglobin (hgb)): 3.03 mg/kg/day
NEL (rat [10]; [28]): 0.31 mg/kg/day
NOAEL (rat [10]; [28]): 3.03 mg/kg/day
LOAEL (rat [10]; systemic / pathology microscopic / thyroid gland / adenoma/carcinoma combined + systemic / organ weight / liver / absolute + systemic / …): 30.6 mg/kg/day
LOAEL (dog [11]; [21]): 13.3 mg/kg/day
NEL (dog [11]; [29]): 3.3 mg/kg/day
NOAEL (dog [11]; [29]): 3.3 mg/kg/day
LEL (dog [11]; systemic / pathology microscopic / liver / hypertrophy + systemic / organ weight / liver / absolute + systemic / organ weight / liver / …): 13.3 mg/kg/day
LEL (mouse [12]): 26.3 mg/kg/day
LOAEL (mouse [12]): 26.3 mg/kg/day
NEL (mouse [12]): 1.28 mg/kg/day
NOAEL (mouse [12]): 1.28 mg/kg/day
